# From US20110190192A1, “METHODS FOR TREATING ERECTILE DYSFUNCTION IN PATIENTS WITH INSULIN-DEPENDENT DIABETES” (Cebix Inc., priority 2009, published 2011)
# Legend:
# [1] = test system: type 1 diabetes patients with peripheral neuropathy; assay: ECG and vital signs; type: in vivo, human; details: for BPd (diastolic blood pressure) change, mean ± SD / BPd (diastolic blood pressure) change, median / BPs (systolic blood pressure) change, mean ± SD / BPs (systolic blood pressure) change, median / Heart rate change, mean ± SD / Heart rate change, median / QTc-interval Bazett change, mean ± SD / QTc-interval Bazett change, median / QTc-interval Fredericia change, mean ± SD / QTc-interval Fredericia change, median: baseline to 6 months (visit 4), PP data set
# Experimental: ECG was performed at baseline and at end of study, i.e., visit 4 (at 6 months±2 weeks from the S/B visit).
# [2] = C-peptide concentrations in plasma (time-resolved fluoroimmunoassay); details: dose ranges of the study; very small patient number
# Experimental: Blood samples for determination of C-peptide in plasma were drawn at the S/B visit, visit 2, and at end of study (visit 4).
# The sampling of C-peptide in plasma at visits 2 and 4 coincided with the clinical visit and the time between the most recent administration of the trial drug and sampling varied between patients.
# C-peptide plasma levels were measured at baseline, and after 3 and 6 months of treatment. Analysis was performed by the Department of Clinical Chemistry Karolinska University Hospital, Solna using a time-resolved fluoroimmunoassay (AutoDelfia, Wallac Oy, Turku, Finland).
# C-peptide plasma levels were also measured pre-dosing in the morning in 22 randomly selected patients at the Karolinska Hospital after 4.5 months of study treatment (visit 3).
# [3] = test system: type 1 diabetes patients with peripheral neuropathy; details: in vivo
# Text: (§1) The safety measurements comprised collection of AEs, spontaneously reported by the patient or recorded by the investigator at each clinical visit.
# (§2) An AE was classified as “unexpected event” (i.e., if not specifically listed in the Investigator's Brochure) in terms of nature, severity, or frequency. All AEs, including intercurrent illnesses and increased severity or frequency of sign/symptoms of a concomitant disease was reported and documented as described below. AEs were documented on an “Adverse Event/Serious Adverse Event” page of the CRF and in the patient's medical records. Any AE occurring at any time after the end of the study, considered to be caused by the study medication—and therefore a possible adverse drug reaction—was reported to the sponsor.
# (§3) Hypoglycemic events are common events in insulin-treated patients. For practical reasons only severe hypoglycemic events, i.e., if the patient required assistance from another person in order to regain normoglycaemia, were reported as an AE.
# (§4) The period of observation for AEs extended from the time the patient started on trial medication until end of the study. AEs were divided into the categories “serious” and “non-serious”. This determined the procedure used to report/document the AE.
# (§5) Descriptive statistics were used for safety variables. […] The safety analysis set included all patients who obtained at least one dose of the investigational drug. AEs were coded according to the MedDRA dictionary. The frequencies of AEs are tabulated by body system and included/preferred term.
# [4] = test system: type 1 diabetes patients with peripheral neuropathy; assay: Adverse events
# Text: as §1, §2, §3, §4, §5
# [5] = high-dose C-peptide, treatment emergent, any severity, PP data set
# [6] = low-dose C-peptide, treatment emergent, any severity, PP data set
smiles,measurement,setting,value
"CC(C)C[C@H](NC(=O)[C@H](C)NC(=O)[C@H](CC(C)C)NC(=O)[C@@H]1CCCN1C(=O)[C@H](CCC(N)=O)NC(=O)[C@H](CC(C)C)NC(=O)[C@H](CO)NC(=O)CNC(=O)[C@H](C)NC(=O)CNC(=O)[C@@H]1CCCN1C(=O)CNC(=O)CNC(=O)CNC(=O)[C@H](CC(C)C)NC(=O)[C@H](CCC(=O)O)NC(=O)[C@@H](NC(=O)[C@H](CCC(N)=O)NC(=O)CNC(=O)[C@@H](NC(=O)[C@H](CCC(N)=O)NC(=O)[C@H](CC(C)C)NC(=O)[C@H](CC(=O)O)NC(=O)[C@H](CCC(=O)O)NC(=O)[C@H](C)NC(=O)[C@@H](N)CCC(=O)O)C(C)C)C(C)C)C(=O)N[C@@H](CCC(=O)O)C(=O)NCC(=O)N[C@@H](CO)C(=O)N[C@@H](CC(C)C)C(=O)N[C@@H](CCC(N)=O)C(=O)O [C-peptide, Recombinant human C-peptide]","Decrease in systolic blood pressure, high-dose vs low-dose group","[1]; 6 months, p<0.004, not statistically different from placebo",significantly greater decrease
same,"BPd (diastolic blood pressure) change, mean ± SD",[1]; high-dose C-peptide,−2.6 ± 8.0 mmHg
same,"BPd (diastolic blood pressure) change, median",[1]; high-dose C-peptide,−1.0 mmHg
same,"BPs (systolic blood pressure) change, mean ± SD",[1]; high-dose C-peptide,−8.8 ± 10.0 mmHg
same,"BPs (systolic blood pressure) change, median",[1]; high-dose C-peptide,−8.0 mmHg
same,"Heart rate change, mean ± SD",[1]; high-dose C-peptide,−3.2 ± 10.0 bpm
same,"Heart rate change, median",[1]; high-dose C-peptide,−4.0 bpm
same,"QTc-interval Bazett change, mean ± SD",[1]; high-dose C-peptide,-4.5 ± 20.3 ms
same,"QTc-interval Bazett change, median",[1]; high-dose C-peptide,0.0 ms
same,"QTc-interval Fredericia change, mean ± SD",[1]; high-dose C-peptide,-0.5 ± 16.2 ms
same,"QTc-interval Fredericia change, median",[1]; high-dose C-peptide,0.0 ms
same,"BPd (diastolic blood pressure) change, mean ± SD",[1]; low-dose C-peptide,−2.7 ± 8.2 mmHg
same,"BPd (diastolic blood pressure) change, median",[1]; low-dose C-peptide,−1.0 mmHg
same,"BPs (systolic blood pressure) change, mean ± SD",[1]; low-dose C-peptide,−2.1 ± 12.8 mmHg
same,"BPs (systolic blood pressure) change, median",[1]; low-dose C-peptide,−1.0 mmHg
same,"Heart rate change, mean ± SD",[1]; low-dose C-peptide,−0.9 ± 8.2 bpm
same,"Heart rate change, median",[1]; low-dose C-peptide,−2.0 bpm
same,"QTc-interval Bazett change, mean ± SD",[1]; low-dose C-peptide,-0.1 ± 17.5 ms
same,"QTc-interval Bazett change, median",[1]; low-dose C-peptide,0.0 ms
same,"QTc-interval Fredericia change, mean ± SD",[1]; low-dose C-peptide,0.9 ± 14.1 ms
same,"QTc-interval Fredericia change, median",[1]; low-dose C-peptide,1.3 ms
same,Accumulation following repeated dosing,[2],no significant accumulation
same,"Acute HIV infection, AE intensity (number of AE incidences)",[3],M (1)
same,"Herpes zoster, AE intensity (number of AE incidences)",[3],M (1)
same,Adverse drug reactions or significant changes in safety variables (blood chemistries and vital signs),"[4]; 500-1,500 nmoL/24 h, 6 months",no adverse drug reactions or significant changes in safety variables
same,Local reactions,"[4]; S.C. injection, 6 months",No local reactions were reported
same,Deaths during the study,[4]; all groups,No deaths
same,Serious adverse events (SAEs),"[4]; high-dose C-peptide (1,500 nmoL/24 h)",Two
same,Relationship of the SAEs to the trial medication,"[4]; high-dose C-peptide, investigators' assessment",unlikely/not related
same,"Dizziness (SOC Injury poisoning, procedural complications), number of AEs",[4]; [5],1
same,"Hyperaesthesia, number of AEs",[4]; [5],1
same,"Hyperaesthesia, number of AEs probably/possibly related to study drug",[4]; [5],(1)
same,"Hypoglycemia, number of AEs probably/possibly related to study drug",[4]; [5],(1)
same,"Injection site burning, number of AEs",[4]; [5],1
same,"Injection site burning, number of AEs probably/possibly related to study drug",[4]; [5],(1)
same,"Pain in extremity (SOC Musculoskeletal and connective tissue disorder), number of AEs",[4]; [5],4
same,"Paraesthesia, number of AEs probably/possibly related to study drug",[4]; [5],(2)
same,"Skin infection (SOC Infections and infestations), number of AEs",[4]; [5],1
same,"Skin infection (SOC Skin and subcutaneous tissue disorders), number of AEs",[4]; [5],2
same,"Tendosynovitis stenosans, number of AEs",[4]; [5],1
same,Total number of AEs,[4]; [5],156
same,Total number of AEs probably/possibly related to study drug,[4]; [5],(5)
same,AEs of moderate intensity,[4]; high-dose group,43 AEs
same,AEs of severe intensity,[4]; high-dose group,9 AEs
same,AEs reported as possible/probable related to the study drug,[4]; high-dose group,5 AEs
same,Number of AEs reported,"[4]; high-dose group, n=52, ITT",154 AEs
same,Patients with AEs,"[4]; high-dose group, out of 52",44 patients
same,"Cardiac arrhythmia (SVES), number of AEs",[4]; [6],1
same,"Dizziness (SOC Nervous system disorders), number of AEs",[4]; [6],2
same,"Elevated serum creatinine, number of AEs",[4]; [6],1
same,"Hepatic enzyme increase, number of AEs probably/possibly related to study drug",[4]; [6],(1)
same,"Hyperglycemia, number of AEs probably/possibly related to study drug",[4]; [6],(1)
same,"Hyperthermeasthesia, number of AEs",[4]; [6],2
same,"Hyperthermeasthesia, number of AEs probably/possibly related to study drug",[4]; [6],(2)
same,"Hypoglycemia, number of AEs probably/possibly related to study drug",[4]; [6],(1)
same,"Insulin sensitivity increased, number of AEs",[4]; [6],1
same,"Insulin sensitivity increased, number of AEs probably/possibly related to study drug",[4]; [6],(1)
same,"Musculoskeletal chest pain, number of AEs",[4]; [6],1
same,"Pain in extremity (SOC Musculoskeletal and connective tissue disorder), number of AEs",[4]; [6],3
same,"Pain in extremity (SOC Musculoskeletal and connective tissue disorder), number of AEs probably/possibly related to study drug",[4]; [6],(1)
same,"Paraesthesia, number of AEs probably/possibly related to study drug",[4]; [6],(1)
same,"Skin infection (SOC Infections and infestations), number of AEs",[4]; [6],5
same,"Tachycardia (stress related), number of AEs",[4]; [6],1
same,Total number of AEs,[4]; [6],173
same,Total number of AEs probably/possibly related to study drug,[4]; [6],(8)
same,AEs of moderate intensity,[4]; low-dose group,51 AEs
same,AEs of severe intensity,[4]; low-dose group,1 AEs
same,AEs reported as possible/probable related to the study drug,[4]; low-dose group,8 AEs
same,Number of AEs reported,"[4]; low-dose group, n=56, ITT",173 AEs
same,Patients with AEs,"[4]; low-dose group, out of 56",48 patients
